Literature values in patent US20240424000A1, “LONG-ACTING INTRA-ARTICULAR DOSAGE FORMS CONTAINING FLUTICASONE PROPIONATE AND USE THEREOF” (Eupraxia Pharmaceuticals Inc., priority 2023, published 2024).

Test system: cartilage
Details: IA every 12 weeks for 2 years; McAlindon et al. 2017

Structure (SMILES): CC1(C)O[C@@H]2C[C@H]3[C@@H]4CCC5=CC(=O)C=C[C@]5(C)[C@@]4(F)[C@@H](O)C[C@]3(C)[C@]2(C(=O)CO)O1 [TCA, triamcinolone acetonide]
- effect of chronic exposure on cartilage: led to increased cartilage loss
